# Reference: patent publication US8586604B2, “Inhibitors of the microsomal prostaglandin E2 synthase-1” (Boehringer Ingelheim International GmbH, priority 2010, dated 2013)
# Target: T1, recombinant human mPGES-1 (Homo sapiens, UniProt O14684)
# T1 construct: made in house; host or cells: Rosetta E. coli (membrane/microsome fraction)
# T1 sequence (O14684 1-152): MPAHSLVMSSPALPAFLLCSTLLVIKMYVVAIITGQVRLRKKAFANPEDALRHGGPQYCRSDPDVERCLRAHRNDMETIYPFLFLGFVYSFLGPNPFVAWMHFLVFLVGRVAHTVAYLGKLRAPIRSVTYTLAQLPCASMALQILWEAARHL
# Experiment: mPGES-1 enzyme assay (HTRF detection of PGE2)
# Assay type: biochemical
# Details: recombinant human mPGES-1 microsomes, PGH2 2 μM, read-out: mPGES-1 inhibitory effect IC50
# Experimental: Microsomes from Rosetta E. coli bacteria expressing recombinant human mPGES-1 can be derived as described below:
# Inoculate 5 ml LB with Ampicilin (50 μg/ml) and Chloramphenicol (34 μg/ml) with bacteria from freeze culture. Incubate 8 h at 37° C. with 200 rpm. Thereafter, inoculate 500-1000 ml LB containing Amp and Chloro with the 5 ml on culture and grow to OD640 of 0.8-1.0.
# Chill the culture to +4° C. before induction. Induce the culture with IPTG at a final concentration of 400 μM. Express the protein at room temp 18-23° C. with 200 rpm shaking over night.
# The following steps can be performed on the following day: • 1. Spin down the cells in 250 ml centrifuge flasks for 15 min at 7000 rpm (Beckmann Coulte Avanti J-E centrifuge) • 2. Dissolve the pellet from 250 ml culture in 12.5 ml homogenization buffer • 3. (15 mM Tris-HCL pH8, 1 mM EDTA pH8, 0.25 mM Sucrose, 2.5 mM GSH, 1Tablet Protease inhibitor per 50 ml buffer) • 4. Disintegrate the cells by sonication, 5×10 seconds at 48% amplitude of a 750 W sonifier • 5. Add 2.5 ml MgCl2 (100 mM) and DNase 12.5 μl (0.8 mg/ml) and incubate on ice for 30 min • 6. Spin down the bacteria debris and save the supernatant, 7000 rpm for 15 min • 7. Isolate the protein containing membranes in the supernatant by ultracentrifugation 120000×g for 2 hour at 4° C. (Sorvall T880 rotor). • 8. Discard the supernatant and dissolve the pellet in 20 mM Potassium phosphate buffer pH7.4 (KH2PO4 and K2HPO4) buffer by sonication (5×10 s, 30% of a 50 W sonifier) and aliquot the enzyme and store aliquots at −80° C.
# Before each experiment is performed an aliquot of the enzyme is thawed and it can then be dissolved in 0.1 M Potassium phosphate buffer pH7.4 (KH2PO4 and K2HPO4) buffer containing 2.5 mM GSH.
# The aim of this assay is to determine the affinity of a test compound for the mPGES-1 enzyme.
# 47 μl of recombinant human mPGES-1 (˜0.5 μg protein/well) containing microsomal suspension in a buffer containing GSH, (2.5 mmol/L L-Glutathione reduced, dissolved in 0.1 mol/L Phosphat Buffer pH 7.4) is dispensed in a 384-well plate and thereafter 1 μl of the test compound(s) is/are added and incubated for 25 minutes at room temperature. The enzyme reaction is started by the addition of 2 ul PGH2 (final conc. 2 μM) dissolved in water-free Diglyme. After 60 seconds the reaction is terminated by addition of a stop solution containing FeCl2 (10 μL 0.074 mol/l FeCl2). The samples are diluted between 1:25 in PBS (Phosphate Buffered Saline). 10 μl of the diluted samples are transferred to 384-well low volume plate. In order to quantify the amount of PGE2 that has been formed, a homogenous time resolved fluorescent (HTRF) detecting of PGE2 has been performed using a commercially available kit from Cisbio according to the manufactures recommendation. This HTRF-based assay has been described in detail (see: Goedken et al., J Biomol Screen, 2008, 13(7), 619-625). Briefly, the diluted samples are mixed with 5 μl PGE2-d2 conjungate and 5 μl anti-PGE2 cryptate conjungate. After an incubation period of the plates over night, the fluorescence is measured by the use of an appropriate microplate reader.
# The fluorescence of Europium cryptate (maxex=307 nm, maxem=620 nm) and d2-PGE2 (maxex=620 nm, maxem=665 nm) are measured.
# The extent of the specific HTRF is measured as a ratio of the emission intensity at 665 nm vs. that at 620 nm at an excitation pulse of 320 nm. The quantification plate contains also wells with different concentrations of PGE2 as calibration curve for the calculation of the PGE2 concentrations from the HTRF ratio values.
# From all mPGES enzyme assay the background is subtracted and the IC50 is calculated over a nonlinear regression with conventional software.
row,Structure (SMILES),IC50 [nM]
1,CC(C)(C)C(=O)NCc1ccc(Cl)c(Nc2nc3cc(C(=O)N[C@H]4CC[C@H](C(F)(F)F)CC4)c(OCC(F)F)nc3n2CC(F)F)c1Cl [Example 15],4
2,COCCOc1nc2nc(Nc3cc(CNC(=O)C4(C(F)(F)F)CC4)ccc3Cl)[nH]c2cc1C(=O)N[C@H]1CC[C@H](C(F)(F)F)CC1 [Example 3],21
3,"Cn1c(Nc2cc(CNC(=O)C(C)(C)C)ccc2Cl)nc2cc(C(=O)Nc3ccc(Br)cc3)c(OCC(F)F)nc21 [Example 1, N-{4-Chloro-3-[6-(4-bromo-phenylcarbamoyl)-5-(2,2-difluoro-ethoxy)-3-methyl-3H-imidazo[4,5-b]pyridin-2-ylamino]benzyl}-2,2-dimethyl-propionamide]",9
4,CC(C)(C)C(=O)NCc1ccc(Cl)c(Nc2nc3cc(C(=O)Nc4ccc(F)c(Cl)c4)c(OCC(F)F)nc3[nH]2)c1Cl [Example 157],2
5,"Cn1c(Nc2cc(CNC(=O)C(C)(C)C)ccc2Cl)nc2cc(C(=O)N[C@H]3CC[C@H](C(F)(F)F)CC3)c(OCC(F)F)nc21 [Example 2, N-{4-Chloro-3-[6-(trans-4-trifluoromethyl-cyclohexylcarbamoyl)-5-(2,2-difluoro-ethoxy)-3-methyl-3H-imidazo[4,5-b]pyridin-2-ylamino]benzyl}-2,2-dimethyl-propionamide]",3
6,O=C(N[C@H]1CC[C@H](C(F)(F)F)CC1)c1cc2nc(Nc3cc(CNC(=O)C4(C(F)(F)F)CC4)ccc3Cl)[nH]c2nc1OCC(F)F [Example 5],4
7,"Cn1c(Nc2c(Cl)ccc(CNC(=O)C(C)(C)C)c2Cl)nc2cc(C(=O)N[C@H]3CC[C@H](C(F)(F)F)CC3)c(OCC(F)F)nc21 [Example 9, N-{2,4-Dichloro-3-[6-(trans-4-trifluoromethyl-cyclohexylcarbamoyl)-5-(2,2-difluoro-ethoxy)-3-methyl-3H-imidazo[4,5-b]pyridin-2-ylamino]benzyl}-2,2-dimethyl-propionamide]",6
8,CC(C)(C)C(=O)NCc1ccc(Cl)c(Nc2nc3cc(C(=O)NCC(F)F)c(OCC(F)F)nc3n2CC(F)F)c1Cl [Example 14],1
9,O=C(N[C@H]1CC[C@H](C(F)(F)F)CC1)c1cc2nc(Nc3c(Cl)ccc(CNC(=O)C4(C(F)(F)F)CC4)c3Cl)[nH]c2nc1OCCOC(F)F [Example 12],1
10,O=C(N[C@H]1CC[C@H](C(F)(F)F)CC1)c1cc2[nH]c(Nc3cc(CNC(=O)C4(C(F)(F)F)CC4)ccc3Cl)nc2nc1OCCF [Example 7],8
11,"Cn1c(Nc2c(F)ccc(CNC(=O)C(C)(C)C)c2F)nc2cc(C(=O)N[C@H]3CC[C@H](C(F)(F)F)CC3)c(OCC(F)F)nc21 [Example 10, N-{2,4-Difluoro-3-[6-(trans-4-trifluoromethyl-cylohexylcarbamoyl)-5-(2,2-difluoro-ethoxy)-3-methyl-3H-imidazo[4,5-b]pyridin-2-ylamino]benzyl}-2,2-dimethyl-propionamide]",5
12,"CC(C)(C)C(=O)NCc1ccc(Cl)c(Nc2nc3cc(C(=O)N[C@H]4CC[C@H](C(F)(F)F)CC4)c(OCC(F)F)nc3[nH]2)c1F [Example 156, N-{2-Fluoro-4-chloro-3-[6-(trans-4-trifluoromethyl-cyclohexylcarbamoyl)-5-(2,2-difluoro-ethoxy)-1H-imidazo[4,5-b]pyridin-2-ylamino]benzyl}-2,2-dimethyl-propionamide]",1
13,COCCOc1nc2c(cc1C(=O)N[C@H]1CC[C@H](C(F)(F)F)CC1)nc(Nc1cc(CNC(=O)C3(C(F)(F)F)CC3)ccc1Cl)n2C [Example 4],8
14,Cn1c(Nc2cc(CNC(=O)C3(C(F)(F)F)CC3)ccc2Cl)nc2cc(C(=O)N[C@H]3CC[C@H](C(F)(F)F)CC3)c(OCCF)nc21 [Example 6],4
15,"CC(C)(C)C(=O)NCc1ccc(Cl)c(Nc2nc3cc(C(=O)N[C@H]4CC[C@H](C(F)(F)F)CC4)c(OCC(F)F)nc3[nH]2)c1Cl [Example 8, N-{2,4-Dichloro-3-[6-(trans-4-trifluoromethyl-cyclohexylcarbamoyl)-5-(2,2-difluoro-ethoxy)-1H-imidazo[4,5-b]pyridin-2-ylamino]benzyl}-2,2-dimethyl-propionamide]",3
16,CC(C)(C)C(=O)NCc1ccc(F)c(Nc2nc3cc(C(=O)N[C@H]4CC[C@H](C(F)(F)F)CC4)c(OCC(F)F)nc3[nH]2)c1F [Example 11],4
